# Measured values from US20060063842A1, “Hypogastric and/or perineal pain-relieving agent” (priority 2002, published 2006).
# Structures can show the parent of a compound that is named as a salt.
# Test system: patients with lower urinary tract symptoms
# Test: Clinical test (12 week study) to patients suffering from lower urinary tract symptoms: pain scores
# Format: in vivo
# Method: Clinical Test (12 Week Study) to Patients Suffering from Lower Urinary Tract Symptoms A clinical study was conducted in patients with lower urinary tract symptoms under the conditions shown below. Subjects: Eighteen patients diagnosed to have urinary dysfunction without accompanying obvious organic or neurological abnormality in lower urinary tract. Study drug and the method of administration: Until Week 4, capsules each containing 0.2 mg tamsulosin hydrochloride were orally administered, one capsule/time/day, after breakfast. In Week 4, the doses for later than Week 4 were determined by referring to the Table below, and the doses determined were orally administered once daily after breakfast. <Criterion of Dose after 4 Weeks> [table] Study period: 12 weeks Observed items: Evaluations and measurements were made for the following items before and after the administration. (2) Pains The pain scores shown below were evaluated before administration, and 4 and 12 weeks after administration. <1> Hypogastric/perineal pain “How strong is hypogastric/perineal pain?” • 0: No pain • 1: Slightly painful • 2: Painful • 3: Quite painful • 4: Very painful <2> Lower backache “How strong is lower backache?” • 0: No pain • 1: Slightly painful • 2: Painful • 3: Quite painful • 4: Very painful
smiles,measurement,setting,value
"CCOc1ccccc1OCCN[C@H](C)Cc1ccc(OC)c(S(N)(=O)=O)c1 [tamsulosin hydrochloride, (R)(−)-5-[2-[[2-(o-ethoxyphenoxy)ethyl]amino]propyl]-2-methoxybenzenesulfonamide]",improvement of hypogastric/perineal pain or lower backache in patients with urinary dysfunction (overall conclusion),"12 week clinical study, 18 patients, oral 0.2 or 0.4 mg/day",effective
same,number of patients with hypogastric/perineal pain improved to score 0 (no pain),"of 7 patients with score 1 (slightly painful) before administration, evaluation in Weeks 4 and 12, oral 0.2 or 0.4 mg/day once daily after breakfast",6 patients
same,"number of patients with hypogastric/perineal pain unchanged (score 1, slightly painful)","of 7 patients with score 1 before administration, evaluation in Weeks 4 and 12, oral 0.2 or 0.4 mg/day",1 patient
same,lower backache score after administration,"the only 1 patient with lower backache (score 1, slightly painful) before administration, evaluation in Weeks 4 and 12, oral 0.2 or 0.4 mg/day",improved to score 0 (no pain)
